Source: ChEMBL document CHEMBL3044659, “Docking, synthesis, and pharmacological evaluation of isoindoline derivatives as anticonvulsant agents” (Med Chem Res, 2013)
The source made the active and inactive calls.

What was measured:
Mus musculus [1] = assay: Anticonvulsant activity in pentylenetetrazole-induced seizure Swiss Mus musculus (mouse) model assessed as increase in tonic seizure threshold at 40 mg/kg, ip measured after 30 min (reference value: 59.58 +/-1.01 mg/kg); format: functional; conditions: route intraperitoneal
Mus musculus [2] = assay: Anticonvulsant activity in pentylenetetrazole-induced seizure Swiss Mus musculus (mouse) model assessed as increase in clonic seizure threshold at 40 mg/kg, ip measured after 30 min (reference value: 38.9 +/-1.01 mg/kg); format: functional; conditions: route intraperitoneal
[3] = biological target: Sodium channel protein type 2 subunit alpha (Homo sapiens, UniProt Q99250); assay: Binding affinity to Nav 1.2 (unknown origin)
Sodium channel protein type 2 subunit alpha, sequence (Q99250 whole entry): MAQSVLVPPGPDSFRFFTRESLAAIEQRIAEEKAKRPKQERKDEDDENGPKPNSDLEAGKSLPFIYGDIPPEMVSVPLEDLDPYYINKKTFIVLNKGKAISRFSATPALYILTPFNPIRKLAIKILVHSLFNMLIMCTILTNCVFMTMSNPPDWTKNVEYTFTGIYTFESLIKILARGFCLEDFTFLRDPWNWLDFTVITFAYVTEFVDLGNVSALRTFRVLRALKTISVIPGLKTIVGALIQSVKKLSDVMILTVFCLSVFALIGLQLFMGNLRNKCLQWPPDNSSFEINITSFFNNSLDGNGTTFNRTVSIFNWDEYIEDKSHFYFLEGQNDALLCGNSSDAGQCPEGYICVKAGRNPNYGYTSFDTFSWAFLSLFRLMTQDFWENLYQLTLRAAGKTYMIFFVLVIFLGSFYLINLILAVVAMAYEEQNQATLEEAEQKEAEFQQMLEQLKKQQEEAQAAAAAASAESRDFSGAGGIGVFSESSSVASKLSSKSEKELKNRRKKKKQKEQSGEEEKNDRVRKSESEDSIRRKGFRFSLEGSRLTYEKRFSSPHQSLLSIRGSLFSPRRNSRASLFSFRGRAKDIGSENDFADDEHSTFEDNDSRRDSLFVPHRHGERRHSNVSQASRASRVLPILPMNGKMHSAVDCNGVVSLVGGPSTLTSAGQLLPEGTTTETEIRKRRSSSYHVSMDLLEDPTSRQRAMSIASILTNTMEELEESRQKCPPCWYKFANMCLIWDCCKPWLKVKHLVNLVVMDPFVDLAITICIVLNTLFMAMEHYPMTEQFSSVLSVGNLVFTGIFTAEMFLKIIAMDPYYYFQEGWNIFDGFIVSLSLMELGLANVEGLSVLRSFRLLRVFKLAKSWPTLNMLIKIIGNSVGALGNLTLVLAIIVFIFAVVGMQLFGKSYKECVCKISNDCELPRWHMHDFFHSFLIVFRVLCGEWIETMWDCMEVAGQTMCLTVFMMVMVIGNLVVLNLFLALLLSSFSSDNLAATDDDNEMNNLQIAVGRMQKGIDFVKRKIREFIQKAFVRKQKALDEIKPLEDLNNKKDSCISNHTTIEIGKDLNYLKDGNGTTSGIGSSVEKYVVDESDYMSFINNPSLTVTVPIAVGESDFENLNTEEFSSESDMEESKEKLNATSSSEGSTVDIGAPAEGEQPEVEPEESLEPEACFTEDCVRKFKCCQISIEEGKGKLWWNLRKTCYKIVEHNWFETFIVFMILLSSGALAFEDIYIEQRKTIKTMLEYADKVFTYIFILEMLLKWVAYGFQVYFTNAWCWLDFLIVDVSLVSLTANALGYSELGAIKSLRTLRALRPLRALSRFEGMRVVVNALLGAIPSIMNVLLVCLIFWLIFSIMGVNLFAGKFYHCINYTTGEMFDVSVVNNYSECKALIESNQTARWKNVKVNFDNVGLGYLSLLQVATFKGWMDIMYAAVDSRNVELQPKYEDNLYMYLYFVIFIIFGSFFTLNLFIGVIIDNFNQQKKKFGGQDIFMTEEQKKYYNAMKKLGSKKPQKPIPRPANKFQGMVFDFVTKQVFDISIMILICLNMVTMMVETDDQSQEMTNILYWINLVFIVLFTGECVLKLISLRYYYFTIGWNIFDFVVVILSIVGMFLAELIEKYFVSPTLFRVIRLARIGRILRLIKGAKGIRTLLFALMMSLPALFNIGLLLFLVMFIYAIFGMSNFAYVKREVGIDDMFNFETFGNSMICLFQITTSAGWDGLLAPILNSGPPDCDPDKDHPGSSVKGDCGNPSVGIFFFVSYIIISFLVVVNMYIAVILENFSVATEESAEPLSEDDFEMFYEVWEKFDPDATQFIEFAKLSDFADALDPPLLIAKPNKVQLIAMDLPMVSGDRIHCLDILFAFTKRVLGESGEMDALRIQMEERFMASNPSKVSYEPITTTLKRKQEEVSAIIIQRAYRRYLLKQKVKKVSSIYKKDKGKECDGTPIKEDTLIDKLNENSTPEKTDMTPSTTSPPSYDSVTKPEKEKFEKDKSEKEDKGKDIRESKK

Mus musculus [4] = assay: Anticonvulsant activity in pentylenetetrazole-induced seizure Swiss Mus musculus (mouse) model assessed as increase in clonic seizure threshold at 10 to 20 mg/kg, ip measured after 30 min; format: functional, organism-based

Structure (SMILES)	Tonic seizure threshold (PTZ dose) (Mus musculus [1])	Clonic seizure threshold (PTZ dose) (Mus musculus [2])	Ki [3]	Activity (Mus musculus [4])
O=C1c2ccccc2C(=O)N1c1ccccc1[N+](=O)[O-]	65.66 mg/kg	46.34 mg/kg	134 µM	–
O=C(O)c1ccc(N2C(=O)c3ccccc3C2=O)cc1O	64.97 mg/kg	52.1 mg/kg	78.4 µM	–
CC(=O)Nc1ccc(N2C(=O)c3ccccc3C2=O)cc1	86.37 mg/kg	40.37 mg/kg	18.3 µM	–
O=C(O)c1ccccc1N1C(=O)c2ccccc2C1=O [N-PHTHALOYLANTHRANILIC ACID]	58.08 mg/kg	42.95 mg/kg	338 µM	–
NS(=O)(=O)c1ccc(N2C(=O)c3ccccc3C2=O)cc1	60.56 mg/kg	33.4 mg/kg	16 µM	–
O=C1NC(=O)C(c2ccccc2)(c2ccccc2)N1 [PHENYTOIN]	115 mg/kg	49.2 mg/kg	–	inactive
O=C1c2ccccc2C(=O)N1c1cccc([N+](=O)[O-])c1	96.84 mg/kg	64.89 mg/kg	21.8 µM	–
O=C(O)c1ccc(N2C(=O)c3ccccc3C2=O)cc1	79.94 mg/kg	46.65 mg/kg	50.4 µM	–
NS(=O)(=O)c1nnc(N2C(=O)c3ccccc3C2=O)s1	62.35 mg/kg	45.14 mg/kg	61.1 µM	–
COc1ccc(N2C(=O)c3ccccc3C2=O)c([N+](=O)[O-])c1	61.92 mg/kg	49.4 mg/kg	108 µM	–
O=C1c2ccccc2C(=O)N1c1ccc([N+](=O)[O-])cc1	61.6 mg/kg	41.12 mg/kg	65.6 µM	–
COc1ccc(N2C(=O)c3ccccc3C2=O)c(N)c1	98.12 mg/kg	56.34 mg/kg	20.3 µM	–
